The text below walks through data of ChEMBL document CHEMBL3421561, “CNS drug design: balancing physicochemical properties for optimal brain exposure” (J Med Chem, 2015).

For one data set, the system named is Gerbillinae. Put plainly: Antagonist activity at NK1 receptor in substance P-induced gerbil foot tapping model.
Another data set relates to Rattus norvegicus. Kind of data set: AUC (0 to 1 hr) in rat at 0.5 mg/kg, iv. Format: ADME, organism-based, Plasma. On the set-up: time < 1 hr, dose 0.5 mg/kg, route intravenous. The settings on record: in vivo.
The target of a further data set is Substance-P receptor (Homo sapiens, UniProt P25103). Kind of data set: Antagonist activity at NK1 receptor (unknown origin).
Substance-P receptor, sequence (P25103 whole entry): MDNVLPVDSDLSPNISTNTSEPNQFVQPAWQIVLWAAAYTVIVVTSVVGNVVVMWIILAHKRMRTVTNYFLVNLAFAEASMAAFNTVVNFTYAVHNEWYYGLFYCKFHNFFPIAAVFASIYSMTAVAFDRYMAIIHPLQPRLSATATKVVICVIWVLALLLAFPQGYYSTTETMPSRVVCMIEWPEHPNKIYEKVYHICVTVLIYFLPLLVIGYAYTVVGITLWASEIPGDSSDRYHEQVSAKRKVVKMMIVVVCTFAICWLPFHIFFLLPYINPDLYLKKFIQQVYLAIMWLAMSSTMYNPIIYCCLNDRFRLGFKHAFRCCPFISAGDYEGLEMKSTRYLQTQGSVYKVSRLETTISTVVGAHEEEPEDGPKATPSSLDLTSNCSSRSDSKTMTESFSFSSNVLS
Data set [1] is described as follows: Ratio of drug uptake in brain to plasma in rat. The settings on record: brain and plasma. Format: ADME.
The subject of a further data set is Brain. Kind of data set: AUC in rat brain at 10 mg/kg, sc. Type of data set: ADME, organism-based. The settings on record: in vivo. Further details: dose 10 mg/kg, route subcutaneous.
Data set [2] in a line: AUC in rat interstitial fluid at 10 mg/kg, sc by transcortical microdialysis. Format: ADME, organism-based. On the set-up: dose 10 mg/kg, route subcutaneous. The note with it: in vivo.
A short description of data set [3]: Apparent permeability of the compound. The settings on record: not told.
Data set [4] is described as follows: Ratio of unbound drug in brain to plasma in mouse. Format: ADME, organism-based. The note with it: brain and plasma, read-out: K(p,uu,brain).
The nature of data set [5]: Half life in dog. Format: ADME, organism-based, Canis lupus familiaris. The note with it: in vivo.
Data set [6] in a line: Oral bioavailability in dog. The settings on record: in vivo. Type of data set: ADME, organism-based, Canis lupus familiaris.
Data set [7] is described as follows: Solubility of the compound. Format: physicochemical.
Data set [8] can be described thus: Ratio of unbound drug in brain to plasma in rat. The settings on record: brain and plasma, read-out: K(p,uu,brain). Type of data set: ADME.
Another data set has as its target Mu-type opioid receptor (Homo sapiens, UniProt P35372). Put plainly: biochemical. Type of data set: cell-based, 293T.

Mu-type opioid receptor, sequence (P35372 whole entry): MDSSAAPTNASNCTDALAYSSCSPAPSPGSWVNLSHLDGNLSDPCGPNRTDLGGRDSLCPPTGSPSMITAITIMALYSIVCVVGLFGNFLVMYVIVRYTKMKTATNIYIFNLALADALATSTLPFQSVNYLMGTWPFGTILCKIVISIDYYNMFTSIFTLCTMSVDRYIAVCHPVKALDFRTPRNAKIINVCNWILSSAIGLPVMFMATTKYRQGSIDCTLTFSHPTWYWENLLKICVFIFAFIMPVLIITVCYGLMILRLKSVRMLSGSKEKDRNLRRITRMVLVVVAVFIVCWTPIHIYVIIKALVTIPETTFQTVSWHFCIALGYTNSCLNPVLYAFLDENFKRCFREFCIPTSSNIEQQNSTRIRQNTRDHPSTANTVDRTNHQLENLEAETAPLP
Description for Mu-type opioid receptor: Displacement of [3H]naloxone from MOR (unknown origin) expressed in human 293T cells

`C[C@H](NC(=O)[C@](Cc1c[nH]c2ccccc12)(CN(C)C)NC(=O)OCc1cc2ccccc2o1)c1ccccc1` came in with an MED in the data set on Gerbillinae of 1 mg/kg. The AUC in the data set with Rattus norvegicus stood at 50 ng·h/g. The IC50 – broadly, the concentration that inhibits the measured activity by half – at Substance-P receptor turned out to be 0.5 nM. In addition, the Kp (commonly tissue or fluid exposure divided by exposure in the circulation) in data set [1] was found to be 6.
On to `CN1CC[C@]23c4c5ccc(O)c4O[C@H]2[C@@H](O)C=C[C@H]3[C@H]1C5` [MORPHINE], for which the AUC is 186 µM/min in the data set with Brain and 79 µM/min in data set [2].
For the molecule `CC(C)(C)c1ccc(C(O)CCCN2CCC(C(O)(c3ccccc3)c3ccccc3)CC2)cc1` (centres undefined) [TERFENADINE], in [3], the Papp (as a rule, the rate of passage across a membrane or cell layer, normalised by area and donor concentration) was determined as 28.5 ×10⁻⁶ cm/s.
For `COc1ccc(C(CN(C)C)C2(O)CCCCC2)cc1` (centres undefined) [VENLAFAXINE], the Kp uu in data set [4] was found to be 0.98.
As to `C[C@H](NC(=O)[C@@](C)(Cc1c[nH]c2ccccc12)NC(=O)OCc1cc2ccccc2o1)c1ccccc1`, in the data set with Gerbillinae, the MED was found to be 30 mg/kg. Moreover, in the data set with Rattus norvegicus, the AUC turned out to be 120 ng·h/g. Also, the half-life – broadly, the time needed for the level to fall by half in the phase considered – in data set [5] is above 6 h. Also, the bioavailability – broadly, dose-corrected exposure relative to a reference, in per cent – in data set [6] is 60%. In [7], the solubility (commonly how much of the substance goes into solution per volume) is below 2 µg/mL. Also, the concentration ratio (Kp) in [1] stood at 0.4.
`CN1CC[C@]23c4c5ccc(O)c4O[C@H]2[C@@H](O[C@@H]2O[C@H](C(=O)O)[C@@H](O)[C@H](O)[C@H]2O)C=C[C@H]3[C@H]1C5` [MORPHINE GLUCURONIDE]: the AUC is 42 µM/min in the data set on Brain and 336 µM/min in data set [2]. Further, the Kp uu in data set [8] came to 0.56. In addition, the inhibition constant (Ki) (as a rule, the equilibrium dissociation constant of an inhibitor or competing ligand from its target) at Mu-type opioid receptor is 63 nM. For the same molecule, in [1], the Kp came out at 0.05.
